Results published in patent US20120184542A1, “PYRIDO PYRIMIDINES” (priority 2011, published 2012).

How the values were obtained:
Human DYRK1B = biological target: T1, Human DYRK1B (Homo sapiens, UniProt Q9Y463); assay: DYRK1B Kinase TR-FRET (IMAP-Tb) Assay; assay type: biochemical; settings: for IC50: TR-FRET (IMAP-Tb), ATP 70 μM, 37° C. 60 minutes, read-out: Enzyme IC50 (μM) DYRK1B; for inhibition at 10 µM: read-out: % inhibition of DYRK1B at 10 μM test compound concentration
T1 construct: purchased Invitrogen PR8350B (former PV4649)
T1 sequence (Q9Y463 whole entry): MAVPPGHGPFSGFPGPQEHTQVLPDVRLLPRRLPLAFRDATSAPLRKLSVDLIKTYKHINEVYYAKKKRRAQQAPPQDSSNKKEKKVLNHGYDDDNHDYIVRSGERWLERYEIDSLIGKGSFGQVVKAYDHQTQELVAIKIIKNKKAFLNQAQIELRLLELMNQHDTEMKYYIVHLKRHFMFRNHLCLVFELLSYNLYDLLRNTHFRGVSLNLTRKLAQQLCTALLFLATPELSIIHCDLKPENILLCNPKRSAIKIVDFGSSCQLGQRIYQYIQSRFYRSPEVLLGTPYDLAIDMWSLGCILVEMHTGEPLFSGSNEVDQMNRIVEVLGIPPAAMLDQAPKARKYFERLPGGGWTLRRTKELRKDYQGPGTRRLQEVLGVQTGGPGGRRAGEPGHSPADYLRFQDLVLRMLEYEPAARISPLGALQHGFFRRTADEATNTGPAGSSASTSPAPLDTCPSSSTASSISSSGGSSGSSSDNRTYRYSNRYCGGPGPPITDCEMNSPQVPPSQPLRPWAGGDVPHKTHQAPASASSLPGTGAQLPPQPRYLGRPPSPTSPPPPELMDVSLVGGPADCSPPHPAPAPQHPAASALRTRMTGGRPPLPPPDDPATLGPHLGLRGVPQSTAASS

Human DYRK1A = biological target: T2, Human DYRK1A (Homo sapiens, UniProt Q13627); assay: DYRK1A Kinase TR-FRET (IMAP-Tb) Assay; assay type: biochemical; settings: for IC50: TR-FRET (IMAP-Tb), ATP 70 μM, 37° C. 60 minutes, read-out: Enzyme IC50 (μM) DYRK1A; for inhibition at 10 µM: read-out: % inhibition of DYRK1A at 10 μM test compound concentration
T2 construct: purchased Invitrogen PV3997
Description: The kinase TR-FRET (IMAP-Tb) assay uses a fluorescence labeled substrate peptide in the kinase reaction. Upon phosphorylation by the kinase, phosphopeptide is produced, which will be detected by the binding solution provided in IMAP TR-FRET binding kit. After the completion of the kinase reaction, the reaction will be stopped by adding the binding solution containing terbium tracer. This tracer is immobilized on the surface of the IMAP beads, which also contain metal ions on the beads that bind to the phospho-groups of the products. Thus the phosphorylated product of the reaction can enter into close proximity to the tracer, producing resonance energy transfer. Due to the long lifetime of terbium (Tb) fluorescence the detection can be run in time resolved mode, which virtually eliminates fluorescence interference from assay components or compounds.
The TR-FRET signal measurement from this assay, given as an IC50 measurement, is a measure of a test compound's ability to interfere with the phosphorylation of the peptide substrate, that is it inhibits the phosphorylation of the substrate peptide by DYRK1A, and is thus a measure of the test compound's ability to inhibit the activity of DYRK1A.
• 1. Human DYRK1A: from Invitrogen. Part #PV3997 • 2. Substrate Peptide: […] • 3. IMAP TR-FRET IPP Explorer Kit: from Molecular Devices. Part #R8157 • 4. Kinase Assay Buffer (KAB): 10 mM HEPES pH 7.0, 50 mM NaCl, 5 mM MgCl2, 1 mM DTT, 1 mM NaVO4, 200 μg/mL BSA (0.02%) • 5. Assay Plate: Remp polypropylene clear 384-well microplate. […] Detection Plate: Costa black 384-well microplate.
• 1. Transfer 1.5 μL of 20× compound solution to each well of an assay plate. • 2. Add to each well 22.5 μL of KAB Buffer. • 3. Add to each well 3 μL of the solution of DYRK1A and ATP. […] Add to each well 3 μL of the substrate peptide. The assay concentration is 1.0 μM • 5. Incubate the assay plates at 37° C. for 60 minutes. • 6. Add 18 μL of Detection Solution (1:800 diluted Progress bead stock, 1:400 diluted Tb stock, 80% Buffer A, and 20% Buffer B) into each well of detection plates. • 7. Transfer 6 μL of assay solution from the assay plate to the detection plate. • 8. Shake detection plates for 30 minutes. • 9. Read plates in Envision with wavelength set at excitation 340 nm for Tb, emission 490 nm, and […].

Row | SMILES | IC50 (Human DYRK1B) [µM] | IC50 (Human DYRK1A) [µM] | inhibition at 10 µM (Human DYRK1B) [%] | inhibition at 10 µM (Human DYRK1A) [%]
1 | CCN(CC)CCOc1ncc2cc(C(=O)Nc3cc(C(=O)OC)ccc3Cl)c(=O)[nH]c2n1 [Example 45, 4-Chloro-3-{[2-(2-diethylamino-ethoxy)-7-oxo-7,8-dihydro-pyrido[2,3-d]pyrimidine-6-carbonyl]amino}-benzoic acid methyl ester] | 0.85 | 0.729 | – | –
2 | COc1ncc2cc(C(=O)Nc3cc(C(=O)NCc4ccc(Cl)cc4)ccc3Cl)c(=O)[nH]c2n1 [Example 46, 2-Methoxy-7-oxo-7,8-dihydro-pyrido[2,3-d]pyrimidine-6-carboxylic acid [2-chloro-5-(4-chloro-benzylcarbamoyl)-phenyl]-amide] | 0.192 | 1.16 | – | –
3 | COc1ncc2cc(C(=O)Nc3cc(C(=O)NCc4ccccc4Cl)ccc3Cl)c(=O)[nH]c2n1 [Example 47, 2-Methoxy-7-oxo-7,8-dihydro-pyrido[2,3-d]pyrimidine-6-carboxylic acid [2-chloro-5-(2-chloro-benzylcarbamoyl)-phenyl]-amide] | 0.0908 | 0.0343 | – | –
4 | COC(=O)c1ccc(Br)c(NC(=O)c2cc3cnc(OC)nc3[nH]c2=O)c1 [Example 48, 4-Bromo-3-[(2-methoxy-7-oxo-7,8-dihydro-pyrido[2,3-d]pyrimidine-6-carbonyl)-amino]-benzoic acid methyl ester] | 0.217 | 0.205 | – | –
5 | COc1ncc2cc(C(=O)Nc3cc(C(=O)OCc4ccccc4)ccc3Cl)c(=O)[nH]c2n1 [Example 50, 4-Chloro-3-[(2-methoxy-7-oxo-7,8-dihydro-pyrido[2,3-d]pyrimidine-6-carbonyl)-amino]-benzoic acid benzyl ester] | – | – | 3 | 30
6 | COc1ncc2cc(C(=O)Nc3cc(C(=O)OCc4ccccc4Cl)ccc3Cl)c(=O)[nH]c2n1 [Example 52, 4-Chloro-3-[(2-methoxy-7-oxo-7,8-dihydro-pyrido[2,3-d]pyrimidine-6-carbonyl)-amino]-benzoic acid 2-chloro-benzyl ester] | 5.25 | 1.19 | – | –
7 | COc1ncc2cc(C(=O)Nc3cc(C(=O)OCc4cccc(Cl)c4)ccc3Cl)c(=O)[nH]c2n1 [Example 53, 4-Chloro-3-[(2-methoxy-7-oxo-7,8-dihydro-pyrido[2,3-d]pyrimidine-6-carbonyl)-amino]-benzoic acid 3-chloro-benzyl ester] | > 10 | – | – | 32
8 | COc1ncc2cc(C(=O)Nc3cc(C(=O)N(C)C)ccc3Cl)c(=O)[nH]c2n1 [Example 55, 2-Methoxy-7-oxo-7,8-dihydro-pyrido[2,3-d]pyrimidine-6-carboxylic acid (2-chloro-5-dimethylcarbamoyl-phenyl)-amide] | 1.37 | 4.1 | – | –
9 | COc1ncc2cc(C(=O)Nc3cc(C(=O)NCc4cccc(C(F)(F)F)c4)ccc3Cl)c(=O)[nH]c2n1 [Example 59, 2-Methoxy-7-oxo-7,8-dihydro-pyrido[2,3-d]pyrimidine-6-carboxylic acid [2-chloro-5-(3-trifluoromethyl-benzylcarbamoyl)-phenyl]-amide] | 0.222 | 0.0723 | – | –
10 | COc1ncc2cc(C(=O)Nc3cc(C(=O)N(C)Cc4ccccc4)ccc3Cl)c(=O)[nH]c2n1 [Example 60, 2-Methoxy-7-oxo-7,8-dihydro-pyrido[2,3-d]pyrimidine-6-carboxylic acid [5-(benzyl-methyl-carbamoyl)-2-chloro-phenyl]-amide] | 0.357 | 0.561 | – | –
11 | COc1ncc2cc(C(=O)Nc3cc(C(=O)NCc4cccc(Cl)c4)ccc3C)c(=O)[nH]c2n1 [Example 62, 2-Methoxy-7-oxo-7,8-dihydro-pyrido[2,3-d]pyrimidine-6-carboxylic acid [5-(3-chloro-benzylcarbamoyl)-2-methyl-phenyl]-amide] | 0.437 | 0.119 | – | –
12 | COc1ncc2cc(C(=O)Nc3cc(C(=O)N(C)Cc4cccc(Cl)c4)ccc3C)c(=O)[nH]c2n1 [Example 63, 2-Methoxy-7-oxo-7,8-dihydro-pyrido[2,3-d]pyrimidine-6-carboxylic acid {5-[(3-chloro-benzyl)-methyl-carbamoyl]-2-methyl-phenyl}-amide] | – | 4.58 | 28 | –
